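48-hour exposure; five concentrations; linearly interpolated endpoints. Abbreviation: GI50, concentration required for 50% inhibition of growth.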 Active and inactive are the calls of the source. Rule as the data show it: active = GI50 up to about 1.1 µM and inactive = higher.
Experiments:
Experiment in all cases: NCI tumour cell line growth inhibition, 48 h
OVCAR-5 = system: OVCAR-5
IGROV-1 = system: IGROV-1
DU-145 = system: DU-145
LOX IMVI = system: LOX IMVI
786-0 = system: 786-0
A549 = system: A549
UACC-62 = system: UACC-62
PC-3 = system: PC-3
SK-MEL-5 = system: SK-MEL-5
NCI/ADR-RES = system: NCI/ADR-RES
SK-MEL-2 = system: SK-MEL-2
OVCAR-4 = system: OVCAR-4
MDA-MB-231 = system: MDA-MB-231
MDA-N = system: MDA-N
HL-60 = system: HL-60
BT-549 = system: BT-549
SF-268 = system: SF-268
CAKI-1 = system: CAKI-1
T47D = system: T47D

Measured: GI50

CCOC(=O)c1sc2nc(SC)nc(Nc3ccc4c(c3)OCCCO4)c2c1N
inactive: OVCAR-5 > 100 µM | IGROV-1 > 100 µM | DU-145 31.8 µM | LOX IMVI 34.8 µM | 786-0 19.3 µM | A549 8.47 µM | UACC-62 9.84 µM | PC-3 20 µM | SK-MEL-5 3.29 µM | NCI/ADR-RES 8.93 µM | SK-MEL-2 62.5 µM | OVCAR-4 5.47 µM | MDA-MB-231 33 µM | MDA-N 20.5 µM | HL-60 > 100 µM | BT-549 17.5 µM | SF-268 20.8 µM | CAKI-1 > 100 µM | T47D 2.14 µM

C[C@@H]1[C@@H](c2ccccc2)O[B-](c2ccccc2)(c2ccccc2)N1C
inactive: OVCAR-5 74.3 µM | IGROV-1 69 µM | DU-145 63.1 µM | LOX IMVI 61.9 µM | 786-0 65.8 µM | A549 58.6 µM | UACC-62 41 µM | PC-3 17.5 µM | SK-MEL-5 30 µM | NCI/ADR-RES 54.5 µM | SK-MEL-2 49.5 µM | OVCAR-4 72.1 µM | MDA-MB-231 40.7 µM | MDA-N 52 µM | HL-60 15.3 µM | BT-549 30.7 µM | SF-268 64 µM | CAKI-1 27.9 µM | T47D 38.9 µM

CCOC(CBr)OC1C(=O)OCC1(C)C (configuration not stated)
inactive: OVCAR-5 > 100 µM | IGROV-1 > 100 µM | DU-145 > 100 µM | LOX IMVI > 100 µM | 786-0 > 100 µM | A549 > 100 µM | UACC-62 > 100 µM | PC-3 > 100 µM | SK-MEL-5 > 100 µM | NCI/ADR-RES > 100 µM | SK-MEL-2 > 100 µM | OVCAR-4 > 100 µM | MDA-MB-231 > 100 µM | MDA-N > 100 µM | HL-60 > 100 µM | BT-549 > 100 µM | SF-268 > 100 µM | CAKI-1 > 100 µM | T47D > 100 µM

Cc1ccc2c(=O)c(-c3nnc(N)s3)c[nH]c2n1
inactive: OVCAR-5 > 100 µM | IGROV-1 > 100 µM | DU-145 > 100 µM | LOX IMVI > 100 µM | 786-0 55.2 µM | A549 > 100 µM | UACC-62 > 100 µM | PC-3 > 100 µM | SK-MEL-5 > 100 µM | NCI/ADR-RES > 100 µM | SK-MEL-2 > 100 µM | OVCAR-4 > 100 µM | MDA-MB-231 > 100 µM | MDA-N > 100 µM | HL-60 > 100 µM | BT-549 > 100 µM | SF-268 36.3 µM | CAKI-1 > 100 µM | T47D > 100 µM

CC(C)(CCC(C)(C)c1ccccc1)c1ccccc1
inactive: OVCAR-5 18.8 µM | IGROV-1 24.9 µM | DU-145 18.4 µM | LOX IMVI 17.5 µM | 786-0 15.7 µM | A549 28.8 µM | UACC-62 19 µM | PC-3 30.8 µM | SK-MEL-5 14.4 µM | NCI/ADR-RES 19.5 µM | SK-MEL-2 16.6 µM | OVCAR-4 16.4 µM | MDA-MB-231 16.7 µM | MDA-N 22.2 µM | HL-60 16.3 µM | BT-549 20.2 µM | SF-268 17.3 µM | CAKI-1 22.5 µM | T47D 16.7 µM

O=C(NO)c1ccc(OCc2cccc(Cl)c2)cc1
inactive: OVCAR-5 6.15 µM | IGROV-1 6.67 µM | DU-145 7.59 µM | LOX IMVI 5.07 µM | 786-0 6.11 µM | A549 8.18 µM | UACC-62 5.4 µM | PC-3 6.64 µM | SK-MEL-5 12.4 µM | NCI/ADR-RES 2.13 µM | SK-MEL-2 12.8 µM | OVCAR-4 8.95 µM | MDA-MB-231 12.1 µM | MDA-N 10.1 µM | HL-60 2.47 µM | BT-549 13.7 µM | SF-268 10.7 µM | CAKI-1 6.65 µM | T47D 6.97 µM

CNC(=O)c1ccccc1-[s+]1c2ccccc2c(=O)n1C (configuration not stated)
inactive: OVCAR-5 > 100 µM | IGROV-1 > 100 µM | DU-145 > 100 µM | LOX IMVI > 100 µM | 786-0 > 100 µM | A549 > 100 µM | UACC-62 > 100 µM | PC-3 > 100 µM | SK-MEL-5 > 100 µM | NCI/ADR-RES > 100 µM | SK-MEL-2 > 100 µM | OVCAR-4 > 100 µM | MDA-MB-231 > 100 µM | MDA-N > 100 µM | HL-60 > 100 µM | BT-549 > 100 µM | SF-268 > 100 µM | CAKI-1 > 100 µM | T47D > 100 µM

N=C(N)NS(=O)(=O)c1ccc(NC(=O)c2ccc3nc4ccccc4c(N)c3c2)cc1
inactive: OVCAR-5 > 100 µM | IGROV-1 > 100 µM | DU-145 > 100 µM | LOX IMVI > 100 µM | 786-0 > 100 µM | A549 > 100 µM | UACC-62 > 100 µM | PC-3 > 100 µM | SK-MEL-5 > 100 µM | NCI/ADR-RES > 100 µM | SK-MEL-2 > 100 µM | OVCAR-4 > 100 µM | MDA-MB-231 > 100 µM | MDA-N > 100 µM | HL-60 > 100 µM | BT-549 > 100 µM | SF-268 > 100 µM | CAKI-1 > 100 µM | T47D > 100 µM

— ChEMBL document CHEMBL1201862, “PubChem BioAssay data set” (2004)
